# In a melting point compilation (Tetko et al.; mined from patent text by program, amines drawn as free bases though some values may be those of a salt):
row,SMILES,melting point [°C]
1,O=C(C1CCC(Nc2nccc(-n3nnc4c(-c5ccsc5)cccc43)n2)CC1)N1CCC(O)CC1 (configuration not stated),233 to 234
2,O=C(COc1ccc(Cl)cc1)N1CC2COCC2C1 (configuration not stated),110
3,CON(c1ccc([N+](=O)[O-])cc1C#N)S(=O)(=O)c1ccc(Cl)c(C(F)(F)F)c1,140 to 142
4,[N-]=[N+]=NC1(c2nc(N)nc(N)n2)C=CC(c2ccccc2)=CC1 (configuration not stated),230
5,CCN(CC)c1cc(C)nc(Oc2c(C)cc(Cl)cc2C)c1C,184 to 185
6,Oc1cccc(-c2nc(COc3ccc(CCCn4ccnc4)cc3)co2)c1,164 to 165
7,CN(C)Nc1c([N+](=O)[O-])cc(C(F)(F)F)c(Cl)c1[N+](=O)[O-],130 to 131
8,C=CCn1c(=O)c(C(=O)O)c(NC(=O)CCl)c2cccnc21,145 to 148
9,COc1ccc(CC(=O)O)cc1OCCCc1cn(-c2ccc(C(F)(F)F)cn2)nc1C1CCCCC1,117 to 118
10,Fc1ccc(CSc2nnc(-c3ccc4c(c3)CCO4)o2)cc1F,138 to 139
11,COC(=O)c1ccc(-c2coc3ccc(-c4nnc(C)o4)cc23)cc1,208 to 209
12,CC(C)(C)OC(=O)NC(CC(=O)O)c1ccc(Cl)c(Cl)c1 (configuration not stated),128
13,CN1Cc2c(C#Cc3ccccc3)ncn2-c2cccc(Cl)c2C1=O,205 to 206
14,CN(Cc1cc(C(F)(F)F)cc(C(F)(F)F)c1)C(=O)c1c(-c2ccc(F)cc2)c2cnccc2c(=O)n1C,136 to 138
15,Cc1ccc(N(c2ccc(C)cc2)c2c(C)cc(-c3cc(C)c(N(c4ccc(C)cc4)c4ccc5ccc6cccc7ccc4c5c67)c(C)c3)cc2C)cc1,198 to 199
16,COc1cc(CC(=O)NCCCc2ccc(C)c(C)c2)ccc1OCCBr,105
17,CCc1nc(OC)c(NC(=O)N2CCN(c3cc(OC)c(OC)c(OC)c3)CC2)cc1C(=O)Nc1cc(CO)cc(Nc2c3ccccc3nc3ccccc23)c1,190 to 192
18,OC(c1ccc(F)cc1)(c1ccc(F)cc1)C1CCNC1 (configuration not stated),152 to 153
19,Cc1nc(C(O)c2ccc(Cl)cc2)sc1C (configuration not stated),107
20,COc1cc2c(c(OC)c1OC)CCC(Br)C2=O (configuration not stated),107 to 108
21,COc1nc2cc(Cl)cc(I)c2nc1OC,94 to 96
22,Cc1cn(NCCCc2ccncc2F)c2ccc(OC(=O)NN3CCc4ccccc4C3)cc12,157 to 160
23,COP(=O)(CC(O)c1c(C)cc(C)cc1-c1ccc(F)c(C)c1)OC (configuration not stated),98 to 100
24,Cc1nc(-n2cnn(CC3CC3)c2=O)sc1C(=O)NCc1cc[nH]n1,167 to 168

row,SMILES,melting point [°C]
1,CNC(=O)CCC(=O)c1ccc(OCC(O)CNC(C)C)cc1 (configuration not stated),175 to 178
2,Clc1ccc(-c2cc(C3CCNCC3)n[nH]2)cc1,174 to 176
3,CC(C)(C)C(O)(CC#CBr)C(Oc1ccc(Cl)cc1)n1cncn1 (configuration not stated),156 to 160
4,CN1Cc2c(C(=O)OCCO)ncn2-c2ccccc2C1=O,222 to 223
5,Cc1nc(-c2ccc(C(C)(C)C)cc2)sc1C(=O)O,190 to 193
6,Cc1nc(-c2ccc(-c3cscn3)cc2)c(-c2ccc(S(C)(=O)=O)c(F)c2)o1,196 to 197
7,O=C(O)Cc1cn(Cc2ccc(OCc3ccccc3)cc2)nc1-c1ccc(F)cc1,194 to 195
8,Cc1[nH]cnc1CSCCN=C(N)NCCNC(N)=NCCSCc1nc[nH]c1C,201 to 203
9,O=C(c1cccnc1)N1CCC(c2ccc(Br)cc2)=N1,117 to 119
10,CC(SC1COC(c2ccc(C(=O)Nc3ccc(F)cc3)cc2)OC1)C(O)(Cn1cncn1)c1ccc(F)cc1F (configuration not stated),104
11,OCc1cnoc1-c1ccc(OC(F)(F)F)cc1,45 to 46
12,COc1ccc(S(=O)(=O)Oc2ccc(N3CCNC3=O)cc2)cc1,126 to 127
13,O=Cc1csc(NC(=O)OCC(Cl)(Cl)Cl)n1,188 to 190
14,N#CCCNC(=O)c1cccc(-c2ccc3c(c2)N(c2cc(Cl)ccc2Cl)CC3)c1,189 to 190
15,COc1ccc(C2(O)CCNCC2)cc1,120 to 122
16,O=C(O)c1cn(C2CC2)c2cc(Cl)ncc2c1=O,226 to 227
17,O=S(=O)(CI)c1ncc(Cl)cn1,152
18,O=C1c2cccc(NC(=S)Nc3cnccn3)c2C2CCCCN12 (configuration not stated),204
19,Cc1nc(O)cc(C(C)(C)C)n1,131 to 132
20,CCOC1CN2CCC1CC2 (configuration not stated),96 to 98
21,COc1ccc(CN(C)CCCOc2ccc(S(=O)(=O)c3c(C(C)C)n(C)c4ccccc34)cc2)cc1OC,105
22,Cc1cc2c(cc1C)C(=O)C(Br)=C(N)C2=O,228
23,C=Cc1cccc(-n2cnc(-c3cnc4[nH]cc(C(=O)N[C@@H](C)C(C)(C)C)c4n3)c2)c1,253 to 257

# More lines, now with the values ahead:
row,melting point [°C],SMILES
1,91 to 93,COc1cc(OC)c2c(=O)cc(-c3ccccc3Cl)oc2c1C1CCN(C)C1CO (configuration not stated)
2,114,CCOC(=O)CSc1nc2cc([N+](=O)[O-])ccc2[nH]1
3,287 to 290,CC1(C)CNC(=O)c2c1ccc1nc(Nc3c(Cl)cccc3Cl)[nH]c21
4,160 to 162,CCC1(CC)NC(=O)Oc2ccccc21
5,201 to 203,CCCc1nc2c(N)nc3ccccc3c2n1CC1(O)CCOC1 (configuration not stated)
6,112 to 114,COc1ccc2c(c1)C(=O)C(Cc1ccccn1)CO2 (configuration not stated)
7,> 300,Cc1ccc2c(=O)n3nccc3[nH]c2n1
8,68.5 to 70,CCOC(=O)C(CCCCCCN1C(=O)c2ccccc2C1=O)(NC(C)=O)C(=O)OCC
9,136 to 138,COc1cc(=O)n(-c2cccc(C(F)(F)F)c2)nc1C(C)=O
10,272 to 276,CC1(C)Oc2ccc(S(=O)(=O)Nc3ccccc3)cc2C(N2CCCCC2=O)C1O (configuration not stated)
11,47 to 52,Cc1cc(Br)cc(C)c1N([Si](C)(C)C)[Si](C)(C)C
12,169 to 170,CCCC(=O)c1cnc2c(C)cccc2c1Nc1ccc(Cl)cc1Cl
13,77 to 78,Cc1ccccc1-c1nc(-c2cccc(Cl)c2)nn1C
14,60 to 60.5,CCN(CC)CCOc1cccc2c1c1cccc(F)c1n2Cc1ccccc1
15,124 to 127,C=Cc1ccc(C2=CC(=O)NC2=O)cc1
16,139 to 141,CCCCC(Oc1ccccc1)C(=O)OC1CC(O)C=C2C=CC(C)C(CCC3CC(O)CC(=O)O3)C21 (mixture of isomers)
17,67 to 69,Nc1cc(Cl)c(OCc2ccccc2-c2ccccc2)c(Cl)c1
18,130 to 131,CCOC(=O)C(C#N)=Cc1c(Cl)n(Cc2ccccc2)c2ccccc12
19,162 to 164,CCOC(=O)c1sc(N)nc1-c1ccccc1Cl
20,250 to 251,O=C1c2ccccc2N(N2CCOCC2)C2=NCCN12
21,214 to 216,Cc1c(-c2ccc(=O)[nH]c2)cccc1[N+](=O)[O-]
22,95,CN(C)S(=O)(=O)c1cccc2cccc(O)c12
23,99 to 100,O=C(NCCc1cccs1)c1cc(Cl)ccc1Cl
24,89,COc1ccc(-c2nc(C(=O)Cl)c(C)o2)cc1
25,62 to 64,Cc1ccc(-c2c(Cl)ncnc2OCCO)cc1
